Results as given in patent US20250082787A1, “ALGINIC ACID-BASED INJECTABLE HYDROGEL SYSTEM” (National Cancer Center, priority 2018, published 2025).

Assays:
[1] = 2 to 100 μM in distilled water, λex=720 nm
Experimental: Before developing a surgical marker using indocyanine green and human serum albumin conjugate, in order to determine the appropriate concentration of indocyanine green and human serum albumin conjugate, the two substances were mixed by each concentration to observe change in fluorescence (λex=720 nm) and absorbance.
3 mL of distilled water was added to 1.5 mg of indocyanine green (ICG, purchased from Sigma-Aldrich) and dissolved by stirring to prepare a high concentration of indocyanine green solution. Distilled water was added to the high concentration of indocyanine green solution and mixed through stirring to prepared a 2 to 100 μM solution.

[2] = Persistence of fluorescence after subcutaneous injection in nude mouse (IVIS fluorescence image); format: in vivo
Experimental: In order to see the fluorescence persistence of the alginic acid hydrogel containing indocyanine green-human serum albumin in a nude mouse, it was injected in the form of a gel subcutaneously to the nude mouse through a dual syringe, and then the labeling performance over time was photographed with a fluorescent image device (IVIS Lumina XR, Xenogen Corporation-Caliper, CA, USA). Three solutions to be injected into the animal model were prepared in the same manner as in Preparation Examples 7 to 9. FIG. 7 is a schematic diagram of injecting an alginic acid hydrogel containing indocyanine green-human serum albumin subcutaneously to a nude mouse using a dual syringe.
The solutions of Preparation Examples 7 to 9 were injected subcutaneously to a nude mouse, respectively so that the total volume was 100 μL using a dual syringe.

concentration up to which maximum fluorescence intensity increased [1]: about 20 μM | fluorescence remaining compared to immediately after injection ([2]; ROI value, when one day passed): 16%
Compound: CC1(C)C(/C=C/C=C/C=C/C=C2\N(CCCCS(=O)(=O)O)c3ccc4ccccc4c3C2(C)C)=[N+](CCCCS(=O)(=O)[O-])c2ccc3ccccc3c21 [indocyanine green]
time fluorescence was maintained / emitted (FIG. 8) ([2]; 100 μL subcutaneous, nude mouse, λex=780 nm, λem=845 nm): about one | time at which fluorescence (ROI value) was greatest ([2]; FIG. 10A, nude mouse): 6 h | time in which fluorescence signals almost disappeared ([2]; FIG. 10C, nude mouse): 48 h | time after which injected solution spread and disappeared at injection site (FIG. 9) ([2]; appearance of injected site, nude mouse): about 24 hours
